Data: patent publication US20220133699A1, “Antibacterial Compositions” (Singapore Eye Research Institute, priority 2019, published 2022)
Positions of bridges follow the written chain, without caps; N, C: chain ends. Residues, ends and D or L forms follow the SMILES beside them. Chains are numbered I, II in the order given.

Columns and labels:
KLPN 24076 [1] = test: MIC of antibiotics alone against KLPN 24076 (Table 1); format: cell-based, Klebsiella pneumonia; settings: MIC dil in Full strength MHB, antibiotic alone
Method: (§1) KLPN 8852, 27025 and 24076 are carbapenemase resistant (“CRE”) strains of the common bacteria, KLPN, Klebsiella pneumonia. […] The ability of amikacin as well as three carbapenem antibiotics (meropenem, imipenem, and doripenem) to kill each of these strains was tested using minimum inhibitory concentration, or MIC, as a measure of effectiveness.

ACBA 1010 [2] = test: MIC of antibiotics alone against ACBA 1010 (Table 1); format: cell-based, Acinetobacter baumannii; settings: MIC dil in Full strength MHB, antibiotic alone
ACBA 1010 [3] = test: microbe, parasite or virus in culture; format: cell-based, Acinetobacter baumannii; settings: for Synergy MIC / MIC: ACBA 1010; for MIC: Acinetobacter baumannii, agent alone, read-out: Monotherapy MIC
Method: (§2) The ability of B2088 [RGRKVVRR)2KK] to kill strain ACBA 1010 was tested by itself (as a monotherapy), as well as in combination with one of meropenem, imipenem, or doripenem (as a combination therapy) using minimum inhibitory concentration, or MIC, as a measure of effectiveness. Synergism MIC indicates the MIC of each of B2088 or the carbapenem antibiotic when used as an antibacterial composition.

KLPN 8852 [4] = test: MIC of antibiotics alone against KLPN 8852 (Table 1); format: cell-based, Klebsiella pneumonia; settings: MIC dil in Full strength MHB, antibiotic alone
Method: as §1

KLPN 8852 [5] = test: microbe, parasite or virus in culture; format: cell-based, Klebsiella pneumonia; settings: for Synergy MIC / MIC: KLPN 8852; for MIC: Klebsiella pneumoniae, agent alone, read-out: Monotherapy MIC
Method: as §2, with “each of CRE strains KLPN 8852, 27025 and 24076” for “strain ACBA 1010”

KLPN 24076 [6] = test: microbe, parasite or virus in culture; format: cell-based, Klebsiella pneumonia; settings: for Synergy MIC / MIC: KLPN 24076; for MIC: Klebsiella pneumoniae, agent alone, read-out: Monotherapy MIC
Method: as §2, with “each of CRE strains KLPN 8852, 27025 and 24076” for “strain ACBA 1010”

KLPN 27025 [7] = test: microbe, parasite or virus in culture; format: cell-based, Klebsiella pneumonia; settings: for Synergy MIC / MIC: KLPN 27025; for MIC: Klebsiella pneumoniae, agent alone, read-out: Monotherapy MIC
Method: as §2, with “each of CRE strains KLPN 8852, 27025 and 24076” for “strain ACBA 1010”

KLPN 27025 [8] = test: MIC of antibiotics alone against KLPN 27025 (Table 1); format: cell-based, Klebsiella pneumonia; settings: MIC dil in Full strength MHB, antibiotic alone
Method: as §1

[9] = MIC of each agent in combination B2088 + Doripenem
[10] = MIC of each agent in combination B2088 + Imipenem
[11] = MIC of each agent in combination B2088 + Meropenem

Row | SMILES | Synergy MIC (ACBA 1010 [3]; [10]) | Synergy MIC (KLPN 8852 [5]; [10]) | Synergy MIC (KLPN 24076 [6]; [10]) | Synergy MIC (KLPN 27025 [7]; [10]) | MIC (KLPN 24076 [1]) | MIC (ACBA 1010 [2]) | Synergy MIC (ACBA 1010 [3]; [9]) | MIC (ACBA 1010 [3]) | MIC (KLPN 8852 [4]) | Synergy MIC (KLPN 8852 [5]; [9]) | MIC (KLPN 8852 [5]) | Synergy MIC (KLPN 24076 [6]; [9]) | MIC (KLPN 24076 [6]) | Synergy MIC (KLPN 27025 [7]; [9]) | MIC (KLPN 27025 [7]) | MIC (KLPN 27025 [8]) | Synergy MIC (ACBA 1010 [3]; [11]) | Synergy MIC (KLPN 8852 [5]; [11]) | Synergy MIC (KLPN 24076 [6]; [11]) | Synergy MIC (KLPN 27025 [7]; [11]) | other results
1 | C[C@@H](O)[C@H]1C(=O)N2C(C(=O)O)=C(S[C@@H]3CN[C@H](CNS(N)(=O)=O)C3)[C@H](C)[C@H]12 [Doripenem, doripenem] |  |  |  |  | 25 µg/mL | 0.195 µg/mL | 0.007813 µg/mL | < 0.0975 µg/mL | > 50 µg/mL | 0.125 µg/mL | > 50 µg/mL | 1 µg/mL | 25 µg/mL | 0.007813 µg/mL | 25 µg/mL | 25 µg/mL |  |  |  |  | 
2 | NCC[C@H](O)C(=O)N[C@@H]1C[C@H](N)[C@@H](O[C@H]2O[C@H](CN)[C@@H](O)[C@H](O)[C@H]2O)[C@H](O)[C@H]1O[C@H]1O[C@H](CO)[C@@H](O)[C@H](N)[C@H]1O [Amikacin, amikacin] |  |  |  |  | 1.56 µg/mL | 1.56 µg/mL |  |  | 6.25 µg/mL |  |  |  |  |  |  | 0.78 µg/mL |  |  |  |  | 
3 | C[C@@H](O)[C@H]1C(=O)N2C(C(=O)O)=C(S[C@@H]3CN[C@H](C(=O)N(C)C)C3)[C@H](C)[C@H]12 [Meropenem, meropenem] |  |  |  |  | > 50 µg/mL | 1.56 µg/mL |  | 1.56 µg/mL | > 50 µg/mL |  | > 50 µg/mL |  | > 50 µg/mL |  | 50 µg/mL | > 50 µg/mL | 0.5 µg/mL | 1 µg/mL | 1 µg/mL | 0.007813 µg/mL | 

Further lines, with some results ahead:

Row | Synergy MIC (ACBA 1010 [3]; [10]) | Synergy MIC (KLPN 8852 [5]; [10]) | Synergy MIC (KLPN 24076 [6]; [10]) | Synergy MIC (KLPN 27025 [7]; [10]) | SMILES | MIC (KLPN 24076 [1]) | MIC (ACBA 1010 [2]) | Synergy MIC (ACBA 1010 [3]; [9]) | MIC (ACBA 1010 [3]) | MIC (KLPN 8852 [4]) | Synergy MIC (KLPN 8852 [5]; [9]) | MIC (KLPN 8852 [5]) | Synergy MIC (KLPN 24076 [6]; [9]) | MIC (KLPN 24076 [6]) | Synergy MIC (KLPN 27025 [7]; [9]) | MIC (KLPN 27025 [7]) | MIC (KLPN 27025 [8]) | Synergy MIC (ACBA 1010 [3]; [11]) | Synergy MIC (KLPN 8852 [5]; [11]) | Synergy MIC (KLPN 24076 [6]; [11]) | Synergy MIC (KLPN 27025 [7]; [11]) | other results
4 | 1 µg/mL | 0.5 µg/mL | 1 µg/mL | 1 µg/mL | CC(C)[C@H](NC(=O)[C@H](CCCCN)NC(=O)[C@H](CCCNC(=N)N)NC(=O)CNC(=O)[C@@H](N)CCCNC(=N)N)C(=O)N[C@H](C(=O)N[C@@H](CCCNC(=N)N)C(=O)N[C@@H](CCCNC(=N)N)C(=O)NCCCC[C@H](NC(=O)[C@H](CCCNC(=N)N)NC(=O)[C@H](CCCNC(=N)N)NC(=O)[C@@H](NC(=O)[C@@H](NC(=O)[C@H](CCCCN)NC(=O)[C@H](CCCNC(=N)N)NC(=O)CNC(=O)[C@@H](N)CCCNC(=N)N)C(C)C)C(C)C)C(=O)N[C@@H](CCCCN)C(=O)O)C(C)C [B2088, [RGRKVVRR)2KK]] (I: H-RGRKVVRRKK-OH / II: H-RGRKVVRR; amide I:9-II:C; N-terminus and C-terminus assumed) |  |  | 0.0625 µg/mL |  |  | 0.25 µg/mL |  | 1 µg/mL |  | 0.01562 µg/mL |  |  | 1 µg/mL | 1 µg/mL | 1 µg/mL | 0.0625 µg/mL | Monotherapy MIC (ACBA 1010 [3]): 6.25 µg/mL; Monotherapy MIC (KLPN 8852 [5]): 25 µg/mL; Monotherapy MIC (KLPN 24076 [6]): 6.25 µg/mL; Monotherapy MIC (KLPN 27025 [7]): 6.25 µg/mL
5 | 1 µg/mL | 0.5 µg/mL | 1 µg/mL | 1 µg/mL | C[C@@H](O)[C@H]1C(=O)N2C(C(=O)O)=C(SCCN=CN)C[C@H]12 [Imipenem, imipenem] | > 50 µg/mL | 25 µg/mL |  | 12.5 µg/mL | > 50 µg/mL |  | > 50 µg/mL |  | > 50 µg/mL |  | > 50 µg/mL | > 50 µg/mL |  |  |  |  | 
